# Test results reported in US12173018B2, “Penicillin-binding protein inhibitors” (priority 2018, dated 2024).
# Like-named read-outs stand apart in the source and are kept apart here.
# Columns and labels:
# E. coli ATCC 25922 = experiment: Broth microdilution MIC, E. coli ATCC 25922; assay type: cell-based; conditions: Escherichia coli
# Summary of the method: (§1)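 Visual MIC readout after 16-20 h at 37° C in CLSI-format microdilution. Compounds tested as 2-fold series against a 5×10^5 CFU/mL inoculum in cation-supplemented Mueller-Hinton broth.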
# N. gonorrhoeae WHO F = experiment: Liquid broth MIC, N. gonorrhoeae WHO F; assay type: cell-based; conditions: Neisseria gonorrhoeae; N. gonorrhoeae WHO F, liquid broth; read-out: Minimum Inhibitory Concentration, N. gonorrhoeae WHO F
# Method: (§2) Additional antibacterial testing of the series was performed in wild-type reference strains of N. gonorrhoeae (ATCC 49226, FA1090, WHO F and FA19). Liquid broth-based assays were used for antibacterial testing of PBP inhibitors in Neisseria gonorrhoeae. Briefly, cryo-preserved bacterial cultures of clinical strains are streaked for isolation on GC Base agar (BD #228950 at 36 g/L autoclaved at 121° C. for 20 minutes to sterilize) with 1% Kellogg's supplement (40 g glucose, 0.5 g glutamine, 0.05 g ferric nitrate and 2 mg cocarboxylase per 100 mL deionized water filter sterilized through 0.2 μm syringe filters). Following incubation at 36° C. and 5% CO2 to allow growth of colonies, strains are aseptically sub-cultured from original agar plate onto 3 agar plates per strain 24 hours before inoculum preparation. 2-fold serial dilutions of test compounds are conducted in a 96 well plate with a final volume of 150 μL per well at 4/3-fold the final desired concentration. For preparation of assay inoculum, a direct suspension is prepared by aseptically swabbing all colonies from sub-cultured agar plates into culture tubes containing 2 mL of fresh GC broth with […]. After the dilution plates are set up, direct suspensions are then diluted in a cuvette containing GC broth (15 g proteose peptone 43, 1 g corn starch, 4 g dipotassium phosphate, 1 g monopotassium phosphate and 5 g sodium chloride per liter of deionized water are mixed on a stir plate for 20 minutes, pH adjusted to 7.2+/−0.2 pH units with 1 N HCl, centrifuged at 10,000×g for 20 minutes to pellet undissolved corn starch and then autoclaved at 121° C. for 20 minutes to sterilize) and the optical density is measured at 600 nm. Inocula are diluted such that 50 μL of this culture in […] results in a starting bacterial concentration of 5×10^5 CFU/mL when added to the dilution plates. The plates are incubated 40-42 hours at 36° C. and 5% CO2. The MIC is read visually as the lowest concentration well with no bacterial growth.
# N. gonorrhoeae FA1090 = experiment: Liquid broth MIC, N. gonorrhoeae FA1090; assay type: cell-based; conditions: Neisseria gonorrhoeae; N. gonorrhoeae FA1090, liquid broth; read-out: Minimum Inhibitory Concentration, N. gonorrhoeae FA1090
# Method: as §2
# N. gonorrhoeae FA19 = experiment: Liquid broth MIC, N. gonorrhoeae FA19; assay type: cell-based; conditions: Neisseria gonorrhoeae; N. gonorrhoeae FA19, liquid broth; read-out: Minimum Inhibitory Concentration, N. gonorrhoeae FA19
# Method: as §2
# [1] = test system: N. gonorrhoeae ATCC 49226; experiment: Liquid broth MIC, N. gonorrhoeae ATCC 49226; assay type: cell-based; conditions: Neisseria gonorrhoeae, ATCC49226; N. gonorrhoeae ATCC 49226, liquid broth; read-out: Minimum Inhibitory Concentration, N. gonorrhoeae ATCC 49226
# Method: as §2
# E. coli AG100 = experiment: Broth microdilution MIC, E. coli AG100 (wild-type parent); assay type: cell-based; conditions: Escherichia coli; wild-type parent E. coli AG100, broth microdilution; read-out: MIC E. coli AG100
# Summary of the method: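 Starting inoculum of 5×10^5 CFU/mL, from colonies grown 3-5 h in Mueller-Hinton broth with divalent cations, added to two-fold compound dilution series.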
# E. coli 901C = experiment: microbe, parasite or virus in culture; assay type: cell-based; conditions: Escherichia coli; hyper-permeable E. coli 901C, broth microdilution; read-out: MIC E. coli 901C
# Summary of the method: as §1
# K. pneumoniae UMM = experiment: microbe, parasite or virus in culture; assay type: cell-based; conditions: Klebsiella pneumoniae; K. pneumoniae UMM producing SHV-5 and KPC-2; read-out: MIC K. pneumoniae UMM
# Summary of the method: as §1
# E. coli AG100A = experiment: microbe, parasite or virus in culture; assay type: cell-based; conditions: Escherichia coli, read-out: MIC E. coli AG100A
# Summary of the method: as §1
# E. coli PBP3 = E. coli PBP3 (Escherichia coli (strain K12), UniProt P0AD68); experiment: E. coli PBP3 Bocillin-FL fluorescence polarization competition binding assay
# Chain of E. coli PBP3 (P0AD68 whole entry): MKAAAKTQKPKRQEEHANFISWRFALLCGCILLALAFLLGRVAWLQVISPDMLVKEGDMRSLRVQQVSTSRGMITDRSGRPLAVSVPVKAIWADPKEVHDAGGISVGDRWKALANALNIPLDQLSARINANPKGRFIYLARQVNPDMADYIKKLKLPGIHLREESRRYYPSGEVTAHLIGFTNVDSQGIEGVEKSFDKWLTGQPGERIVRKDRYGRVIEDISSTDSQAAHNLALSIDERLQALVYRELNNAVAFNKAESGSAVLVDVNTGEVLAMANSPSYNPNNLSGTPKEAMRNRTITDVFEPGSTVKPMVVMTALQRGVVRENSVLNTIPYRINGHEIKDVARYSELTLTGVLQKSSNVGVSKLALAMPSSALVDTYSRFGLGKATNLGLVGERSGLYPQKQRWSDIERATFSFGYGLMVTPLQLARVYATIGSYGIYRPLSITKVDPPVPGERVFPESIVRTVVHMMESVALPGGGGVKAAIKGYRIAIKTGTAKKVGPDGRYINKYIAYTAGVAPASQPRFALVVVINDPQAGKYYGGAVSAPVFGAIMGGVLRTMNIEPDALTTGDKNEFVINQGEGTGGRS
# Summary of the method: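 Steps: purified PBP (1.5 μM final) mixed with compound (0–1000 μM) in 50 mM Hepes pH 8.0, 300 mM NaCl, 5% glycerol; Bocillin-FL added to 0.1 μM; FP (ex 490, em 520 nm) followed for 60 min. Concentration reducing Bocillin-FL binding reported as EC50.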
# K. pneumoniae 848844 = experiment: microbe, parasite or virus in culture; assay type: cell-based, Klebsiella pneumoniae; conditions: Klebsiella pneumoniae; K. pneumoniae 848844 producing SHV-11 and KPC-2; read-out: MIC K. pneumoniae 848844
# Summary of the method: as §1
# K. pneumoniae SI-117 = experiment: microbe, parasite or virus in culture; assay type: cell-based; conditions: Klebsiella pneumoniae, SI117, read-out: MIC K. pneumoniae SI-117
# Summary of the method: as §1
# E. coli D22 = experiment: microbe, parasite or virus in culture; assay type: cell-based; conditions: Escherichia coli; hyper-permeable E. coli D22, broth microdilution; read-out: MIC E. coli D22
# Summary of the method: as §1
# [2] = ATCC25922, E. coli ATCC 25922, broth microdilution, read-out: MIC E. coli 25922
# [3] = fluorescence polarization competition binding with Bocillin-FL, read-out: E. coli K12 PBP3 Potency
Compound,MIC (E. coli ATCC 25922; [2]) [µg/mL],MIC (N. gonorrhoeae WHO F) [µg/mL],MIC (N. gonorrhoeae FA1090) [µg/mL],MIC (N. gonorrhoeae FA19) [µg/mL],MIC [1] [µg/mL],MIC (E. coli AG100) [µg/mL],MIC (E. coli 901C) [µg/mL],MIC (K. pneumoniae UMM) [µg/mL],MIC (E. coli AG100A) [µg/mL],EC50 (E. coli PBP3) [µM],MIC (K. pneumoniae 848844) [µg/mL],MIC (K. pneumoniae SI-117) [µg/mL],MIC (E. coli D22) [µg/mL],EC50 (E. coli PBP3; [3]) [µM],"MIC (E. coli ATCC 25922; ATCC25922, read-out: MIC E. coli 25922) [µg/mL]"
"CCN1CCN(C(=O)N[C@@H](C(=O)N[C@H]2Cc3cccc(C(=O)O)c3OB2O)c2ccc(O)c(O)c2)C(=O)C1=O [Example 39, (R)-3-((R)-2-(3,4-dihydroxyphenyl)-2-(4-ethyl-2,3-dioxopiperazine-1-carboxamido)acetamido)-2-hydroxy-3,4-dihydro-2H-benzo[e][1,2]oxaborinine-8-carboxylic acid]",8 to 16,0.25 to 0.5,< 0.125,1 to 2,1 to 2,8 to 16,0.5 to 1,8 to 16,2 to 4,–,–,–,–,–,–
"CCN1CCN(C(=O)N[C@H](C(=O)N[C@H]2Cc3ccc(F)c(C(=O)O)c3OB2O)c2ccc(O)c(F)c2)C(=O)C1=O [Example 160, (R)-3-((S)-2-(4-ethyl-2,3-dioxopiperazine-1-carboxamido)-2-(3-fluoro-4-hydroxyphenyl)acetamido)-7-fluoro-2-hydroxy-3,4-dihydro-2H-benzo[e][1,2]oxaborinine-8-carboxylic acid]",> 128,0.25 to 0.5,0.25 to 0.5,16 to 32,16 to 32,> 128,2 to 4,> 128,> 128,30 to 500,> 128,> 128,32 to 64,–,–
"O=C(O)c1cccc2c1OB(O)[C@@H](NC(=O)C(NC(=O)N1CCN(CCF)C(=O)C1=O)c1ncc(O)cc1F)C2 (stereo partly drawn) [Example 179, (3R)-3-(2-(3-fluoro-5-hydroxypyridin-2-yl)-2-(4-(2-fluoroethyl)-2,3-dioxopiperazine-1-carboxamido)acetamido)-2-hydroxy-3,4-dihydro-2H-benzo[e][1,2]oxaborinine-8-carboxylic acid]",8 to 16,< 0.125,< 0.125,4 to 8,0.25 to 0.5,8 to 16,< 0.25,2 to 4,0.5 to 1,–,32 to 64,8 to 16,0.5 to 1,< 30,–
"CCN1CCN(C(=O)NC(C(=O)N[C@H]2Cc3cccc(C(=O)O)c3OB2O)c2ccc(C(N)=O)cc2)C(=O)C1=O (stereo partly drawn) [Example 186, (3R)-3-(2-(4-carbamoylphenyl)-2-(4-ethyl-2,3-dioxopiperazine-1-carboxamido)acetamido)-2-hydroxy-3,4-dihydro-2H-benzo[e][1,2]oxaborinine-8-carboxylic acid]",32 to 64,< 0.125,< 0.125,1 to 2,1 to 2,8 to 16,< 0.25,32 to 64,2 to 4,30 to 500,> 128,> 128,0.5 to 1,–,–
"NC(=O)c1ccc(C(NC(=O)N2CCN(CCF)C(=O)C2=O)C(=O)N[C@H]2Cc3cccc(C(=O)O)c3OB2O)cc1 (stereo partly drawn) [Example 187, (3R)-3-(2-(4-carbamoylphenyl)-2-(4-(2-fluoroethyl)-2,3-dioxopiperazine-1-carboxamido)acetamido)-2-hydroxy-3,4-dihydro-2H-benzo[e][1,2]oxaborinine-8-carboxylic acid]",32 to 64,< 0.125,< 0.125,0.25 to 0.5,0.25 to 0.5,8 to 16,< 0.25,32 to 64,2 to 4,30 to 500,> 128,> 128,0.5 to 1,–,–
"CCN1C[C@H](C)N(C(=O)NC(C(=O)N[C@H]2Cc3cccc(C(=O)O)c3OB2O)c2ncc(O)cc2F)C(=O)C1=O (stereo partly drawn) [Example 192, (3R)-3-(2-((S)-4-ethyl-6-methyl-2,3-dioxopiperazine-1-carboxamido)-2-(3-fluoro-5-hydroxypyridin-2-yl)acetamido)-2-hydroxy-3,4-dihydro-2H-benzo[e][1,2]oxaborinine-8-carboxylic acid]",2 to 4,< 0.125,< 0.125,1 to 2,1 to 2,8 to 16,< 0.25,8 to 16,0.5 to 1,–,32 to 64,32 to 64,0.5 to 1,< 30,–
"CCN1CCN(C(=O)NC(C(=O)N[C@H]2Cc3cccc(C(=O)O)c3OB2O)c2ncc(O)cn2)C(=O)C1=O (stereo partly drawn) [Example 202, (3R)-3-(2-(4-ethyl-2,3-dioxopiperazine-1-carboxamido)-2-(5-hydroxypyrimidin-2-yl)acetamido)-2-hydroxy-3,4-dihydro-2H-benzo[e][1,2]oxaborinine-8-carboxylic acid]",32 to 64,0.25 to 0.5,0.25 to 0.5,4 to 8,4 to 8,32 to 64,0.5 to 1,32 to 64,2 to 4,30 to 500,> 128,32 to 64,8 to 16,–,–
"CCN1CCN(C(=O)NC(C(=O)N[C@H]2Cc3cccc(C(=O)O)c3OB2O)c2ncc(OC(C)=O)cc2F)C(=O)C1=O (stereo partly drawn) [Example 207, (3R)-3-(2-(5-acetoxy-3-fluoropyridin-2-yl)-2-(4-ethyl-2,3-dioxopiperazine-1-carboxamido)acetamido)-2-hydroxy-3,4-dihydro-2H-benzo[e][1,2]oxaborinine-8-carboxylic acid]",–,< 0.125,< 0.125,1 to 2,0.25 to 0.5,8 to 16,< 0.25,8 to 16,0.5 to 1,–,32 to 64,32 to 64,0.5 to 1,–,8 to 16
"NS(=O)(=O)c1ccc(C(NC(=O)N2CCN(CCF)C(=O)C2=O)C(=O)N[C@H]2Cc3cccc(C(=O)O)c3OB2O)cc1F (stereo partly drawn) [Example 211, (3R)-3-(2-(3-fluoro-4-sulfamoylphenyl)-2-(4-(2-fluoroethyl)-2,3-dioxopiperazine-1-carboxamido)acetamido)-2-hydroxy-3,4-dihydro-2H-benzo[e][1,2]oxaborinine-8-carboxylic acid]",32 to 64,0.25 to 0.5,0.25 to 0.5,4 to 8,4 to 8,32 to 64,< 0.25,32 to 64,2 to 4,30 to 500,> 128,> 128,2 to 4,–,–
